Experimental data taken from patent US20050032904A1, “Composition and use of allylamine derivatives” (priority 2003, published 2005).

Columns and labels:
COLO 205 = assay: Determination of cell growth curve (cell counting); format: cell-based, human
Method: The effect of TB on the growth of various human cancer cells […]. In FIG. 1, (A) COLO205, (B) HT29, (C) HepG2, (D) Hep3B, (E) HL60, and (F) normal human fibroblast cells were treated with various concentrations of TB (30 to 120 μM). Media with or without TB were renewed daily until cell counting. Three samples were analyzed in each group. Values represent mean±S.E. The cells were cultured for 5 days with or without TB (30-120 μM), and then the cells were harvested and counted. […] The COLO 205 cells were released from quiescence by incubation in culture media supplemented with 10% FCS and 0.05% DMSO without or with 90 μM TB for 24 h. After 24 h treatment with TB, the cells were washed twice with PBS, replaced with fresh 10% FCS without DMSO or TB. […] The cultured cell numbers in DMSO- and TB-treated group were counted every day. Three samples were analyzed in each group, and values represent the mean±S.E. Human colon cancer, hepatoma, leukemia, and human normal fibroblast cells at a density of 1×10^4 were plated in 35-mm Petri dishes. TB was added at the indicated doses in 0.05% dimethyl-sulfoxide (DMSO). For control specimens, the same volume of the 0.05% DMSO without TB was added. Media with and without TB were changed daily until cell counting

HL60 = assay: Determination of cell growth curve (cell counting); format: cell-based, human; details: 5 days
Method: (§1) The effect of TB on the growth of various human cancer cells […]. In FIG. 1, (A) COLO205, (B) HT29, (C) HepG2, (D) Hep3B, (E) HL60, and (F) normal human fibroblast cells were treated with various concentrations of TB (30 to 120 μM). Media with or without TB were renewed daily until cell counting. Three samples were analyzed in each group. Values represent mean±S.E. The cells were cultured for 5 days with or without TB (30-120 μM), and then the cells were harvested and counted. […] Human colon cancer, hepatoma, leukemia, and human normal fibroblast cells at a density of 1×10^4 were plated in 35-mm Petri dishes. TB was added at the indicated doses in 0.05% dimethyl-sulfoxide (DMSO). For control specimens, the same volume of the 0.05% DMSO without TB was added. Media with and without TB were changed daily until cell counting

HT29 = assay: Determination of cell growth curve (cell counting); format: cell-based, human; details: 5 days
Method: as §1

Hep3B = assay: Determination of cell growth curve (cell counting); format: cell-based, human; details: 5 days
Method: as §1

HepG2 = assay: Determination of cell growth curve (cell counting); format: cell-based, human; details: 5 days
Method: as §1

COLO 205 cells = assay: Flow cytometry (FACS) cell cycle analysis; format: cell-based, human
Method: When they were returned to culture media containing 10% FCS and 0.05% DMSO (control) or 90 μM TB in 0.05% DMSO (which started them all on a new cell cycle) and, at various times thereafter, they were harvested for flow cytometry analysis. […] COLO 205 (A) and HT29 (B) cells were synchronized with 0.04% FCS for 24 h as described in Examples. After synchronization, the cells were then released into complete medium (10% FCS) containing 0.05% DMSO (left panel), or 90 μM TB in 0.05% DMSO (right panel). Percentage of cells in G0/G1, S, and G2/M phases of the cell cycle were determined using established CellFIT DNA analysis software. […] In Hep3B (D) and HL60 (E), TB caused the occurrence of apoptosis in a dose-dependent manner. […] FACS analysis of DNA content after 15 h release from quiescence by incubation in culture media supplemented with 10% FCS and various concentrations of TB in 0.05% DMSO. Percentage of cells in G0/G1, S, and G2/M phases of the cell cycle were determined using established CellFIT DNA analysis software.
The invention further tested whether TB can induce cell cycle arrest at a lower concentration with longer exposure. […] The COLO 205 cells were exposed to culture media supplemented with 10% FCS and various concentrations (1 and 5 μM) of TB in 0.05% DMSO for the indicated times. Media with and without TB were changed daily until flowcytometry analysis performed. Percentage of cells in G0/G1, S, and G2/M phases of the cell cycle were determined using established CellFIT DNA analysis software. Three samples were analyzed in each group, and values represent the mean±S.E.
The COLO 205 and HT 29 cells were synchronized as previously described. (Chen R J, et. al., Toxicology & Applied Pharmacology 2000;169(2):132-41.). After the cells had grown to 70-80% confluence, they were rendered quiescent by incubation for 24 h in RPMI 1640 containing 0.04% FCS, and challenged with 10% FCS. Then, after release using trypsin-EDTA, they were harvested at various times, washed twice with PBS/0.1% dextrose, and fixed in 70% ethanol at 4° C. Nuclear DNA was stained with a reagent containing propimdiamdiodine (50 DNase-free RNase (2 U/ml) and measured using a fluorescence-activated cell sorter (FACS). The population of nuclei in each phase of the cell cycle was determined using established CellFIT DNA analysis software (Becton Dickenson, San Jose, Calif.).

HL 60 cells = assay: Flow cytometry (FACS) cell cycle analysis; format: cell-based, human; details: TB 10-150 μM, 15 h
COLO 205 tumor tissues = assay: DNA fragmentation analysis / TdT nick end labeling in tumor tissues; format: in vivo, nude mouse; details: tumor from TB-treated mouse, 6 weeks
[1] = cited from earlier work
[2] = TB 30-120 μM, media renewed daily, dose-dependent
[3] = TB concentration increased to 60 μM
[4] = daily oral 250 mg TB for 4 weeks, human study

Q: For CN(C/C=C/C#CC(C)(C)C)Cc1cccc2ccccc12 [TB, 1-Naphthalenemethanamine, N-(6,6-dimethyl-2-hepten-4-ynyl)-N-methyl-, (E)-], which “duration of inhibition of cell proliferation after removal of TB” value (COLO 205; 90 μM TB for 24 h, then removed) is on record?
A: The value was “at least 7 days”.

Q: And the “reversibility of TB-induced inhibition of cell proliferation” value (COLO 205; 90 μM TB for 24 h, then washed and replaced with fresh 10% FCS)?
A: Its value is “not reversed by removal of TB”.

Q: What about the cell number (COLO 205; TB 30-120 μM, 5 days, media renewed daily, dose-dependent) of the same compound?
A: The cell number was “decreased cell number”.

Q: And the “cell growth at TB 60 μM” value (COLO 205; TB concentration increased to 60 μM, 5 days)?
A: Its value is “cell growth arrest or cell death”.

Q: What about the cell number (HL60; [2]) of the same compound?
A: The cell number was “decreased cell number”.

Q: What about the “cell growth at TB 60 μM” value (HL60; [3]) of the same compound?
A: The value was “cell growth arrest or cell death”.

Q: What about the cell number (HT29; [2]) of the same compound?
A: The cell number was “decreased cell number”.

Q: What about the “cell growth at TB 60 μM” value (HT29; [3]) of the same compound?
A: Its value is “cell growth arrest or cell death”.

Q: And the cell number (Hep3B; [2])?
A: Its cell number is “decreased cell number”.

Q: What about the “cell growth at TB 60 μM” value (Hep3B; [3]) of the same compound?
A: The value was “cell growth arrest or cell death”.

Q: And the cell number (HepG2; [2])?
A: The cell number was “decreased cell number”.

Q: What about the “cell growth at TB 60 μM” value (HepG2; [3]) of the same compound?
A: Its value is “cell growth arrest or cell death”.

Q: And the “increase of G0/G1 population” value (COLO 205 cells; 60 μM TB alone, 15 h)?
A: The value was “about 2.3 fold”.

Q: And the “accumulation of cells at the G0/G1 phase” value (COLO 205 cells; 90 μM TB after release from quiescence)?
A: Its value is over 90%.

Q: What about the “G0/G1 cell cycle arrest at low concentration with longer exposure” value (COLO 205 cells; TB 1 μM for 3 days) of the same compound?
A: The value was “arrested the COLO 205 cells at the G0/G1 phase”.

Q: And the “G0/G1 cell cycle arrest at low concentration with longer exposure” value (COLO 205 cells; TB 1 μM for 4 days, media changed daily)?
A: The value was “induce significant G0/G1 cell cycle arrest”.

Q: What about the “G0/G1 arrest, dose effect” value (COLO 205 cells; various concentrations of TB, 15 h after release from quiescence, dose-dependent) of the same compound?
A: The value was “induced G0/G1 arrest”.

Q: What about the “apoptosis (presence of sub G1)” value (HL 60 cells) of the same compound?
A: Its value is “dose-dependently caused the occurrence of apoptosis”.

Q: And the G0/G1 arrest (HL 60 cells; p53 null cells)?
A: The G0/G1 arrest was “did not induce G0/G1 arrest”.

Q: And the “apoptosis in COLO 205 tumor (nick end labeling, DNA fragmentation)” value (COLO 205 tumor tissues)?
A: The value was “Induction of apoptosis”.

Q: What about the “fraction of TB absorbed” value ([1]; after an oral dose (250 mg)) of the same compound?
A: The value was “approximately 70%”.

Q: What about the maximum plasma concentrations ([1]; after an oral dose (250 mg)) of the same compound?
A: The maximum plasma concentrations was 0.5 to 1.5 µg/mL.

Q: What about the “time to reach maximum plasma concentrations” value ([1]; after an oral dose (250 mg)) of the same compound?
A: Its value is at most 2 h.

Q: What about the “plasma level of TB” value [1, 4] of the same compound?
A: Its value is 1.7 ± 0.77 µg/mL.

Q: And the plasma level of TB (molar) [1, 4]?
A: The plasma level of TB (molar) was 5.83 µM.
